ChEMBL document CHEMBL4052740, “Potent antiobesity effect of a short-length peptide YY-analogue continuously administered in mice” (Bioorg Med Chem Lett, 2017)
Blank lines part the entries; values can stand above or below the compound they belong to. Calls of active or inactive are those of the source. No cut-off for these calls is given here. Where a SMILES comes first, the peptide text is derived from it. [ ]: non-standard residue; d: D form. dHyp = O=C(O)[C@H]1C[C@H](O)CN1; Cha = N[C@@H](CC1CCCCC1)C(=O)O; Aib = CC(C)(N)C(=O)O

Experiments:
[1] = Total clearance in C57BL/6J mouse at 1 mg/kg, iv by LC/MS/MS analysis; assay type: ADME, organism-based; conditions: in vivo
Mus musculus [2] = assay: Anorectic activity in C57BL/6J mouse assessed as inhibition of food intake at 0.1 mg/kg/day, sc administered by infusion as continuous dosing for 3 days relative to 1 mg/kg/day PYY (3 to 36 residues); assay type: functional
Mus musculus [3] = assay: Antidiabetic activity in type 2 diabetes obese mouse assessed as reduction in glycated hemoglobin level at 0.03 to 0.3 mg/kg/day administered via subcutaneous osmotic pumps by continuous dosing for 11 days; assay type: functional, organism-based
[4] = Mean residence time in C57BL/6J mouse at 1 mg/kg, iv by LC/MS/MS analysis; assay type: ADME, organism-based; conditions: in vivo
[5] = Volume of distribution at steady state in C57BL/6J mouse at 1 mg/kg, iv by LC/MS/MS analysis; assay type: ADME, organism-based; conditions: in vivo, read-out: Vdss
[6] = Plasma concentration in C57BL/6J mouse at 1 mg/kg, iv after 5 mins by LC/MS/MS analysis; assay type: ADME, organism-based
[7] = Mean residence time in C57BL/6J mouse at 1 mg/kg, sc by LC/MS/MS analysis; assay type: ADME, organism-based; conditions: in vivo
Mus musculus [8] = assay: Mean absorption time in C57BL/6J mouse at 1 mg/kg, sc by LC/MS/MS analysis; assay type: ADME, organism-based; conditions: in vivo
[9] = AUC (0 to 24 hrs) in C57BL/6J mouse at 1 mg/kg, iv by LC/MS/MS analysis; assay type: ADME, organism-based; set-up: time < 24 hr, dose 1 mg/kg, route intravenous; conditions: in vivo
[10] = AUC (0 to 24 hrs) in C57BL/6J mouse at 1 mg/kg, sc by LC/MS/MS analysis; assay type: ADME, organism-based; set-up: dose 1 mg/kg, time < 24 hr, route subcutaneous; conditions: in vivo
[11] = biological target: T1, Neuropeptide Y receptor type 2 (Homo sapiens, UniProt P49146); assay: Agonist activity at human Y2 receptor expressed in CHO cell membranes after 120 mins by [35S]GTPgammaS binding assay; assay type: functional
T1 sequence (P49146 whole entry): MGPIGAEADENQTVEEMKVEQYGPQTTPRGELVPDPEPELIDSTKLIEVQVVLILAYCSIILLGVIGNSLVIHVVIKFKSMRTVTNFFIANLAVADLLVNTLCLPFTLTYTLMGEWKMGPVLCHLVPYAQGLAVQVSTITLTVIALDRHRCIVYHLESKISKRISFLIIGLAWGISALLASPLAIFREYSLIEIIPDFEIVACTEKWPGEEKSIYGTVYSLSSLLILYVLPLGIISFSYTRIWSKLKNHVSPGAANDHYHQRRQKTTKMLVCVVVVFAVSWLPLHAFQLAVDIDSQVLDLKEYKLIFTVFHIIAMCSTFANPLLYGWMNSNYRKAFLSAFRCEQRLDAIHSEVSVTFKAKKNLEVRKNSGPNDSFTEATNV

Mus musculus [12] = assay: Anorectic activity in lean C57BL/6J mouse assessed as inhibition of cumulative food intake at 3 to 300 nmol/kg through bolus subcutaneous administration measured 3 to 24 hrs post dose; assay type: functional, organism-based
[13] = Tmax in C57BL/6J mouse at 1 mg/kg, sc by LC/MS/MS analysis; assay type: ADME, organism-based; conditions: in vivo
Mus musculus [14] = assay: Anorectic activity in lean C57BL/6J mouse assessed as inhibition of cumulative food intake at 3 to 300 nmol/kg through bolus subcutaneous administration measured 24 hrs post dose; assay type: functional, organism-based
[15] = Bioavailability in C57BL/6J mouse at 1 mg/kg, sc by LC/MS/MS analysis; assay type: ADME, organism-based; conditions: in vivo
Mus musculus [16] = assay: Anorectic activity in C57BL/6J mouse assessed as inhibition of food intake at 0.3 mg/kg/day, sc administered by infusion as continuous dosing for 3 days relative to 1 mg/kg/day PYY (3 to 36 residues); assay type: functional
[17] = biological target: T1, Neuropeptide Y receptor type 2; assay: Displacement of [125I]peptide YY from human Y2 receptor expressed in CHO cell membranes after 60 mins by TopCount scintillation counting analysis
Mus musculus [18] = assay: Antiobesity activity in obese C57BL/6J mouse assessed as inhibition of cumulative food intake at 0.03 to 0.3 mg/kg/day administered via subcutaneous osmotic pumps by continuous dosing for 11 days; assay type: functional, organism-based
Mus musculus [19] = assay: Antidiabetic activity in type 2 diabetes obese mouse assessed as reduction in plasma glucose level at 0.03 to 0.3 mg/kg/day administered via subcutaneous osmotic pumps by continuous dosing for 11 days; assay type: functional, organism-based
Mus musculus [20] = assay: Anorectic activity in C57BL/6J mouse assessed as inhibition of food intake at 0.03 mg/kg/day, sc administered by infusion as continuous dosing for 3 days relative to 1 mg/kg/day PYY (3 to 36 residues); assay type: functional
[21] = Cmax in C57BL/6J mouse at 1 mg/kg, sc by LC/MS/MS analysis; assay type: ADME, organism-based; set-up: dose 1 mg/kg, route subcutaneous; conditions: in vivo
Mus musculus [22] = assay: Antiobesity activity in obese C57BL/6J mouse assessed as body weight loss at 0.3 mg/kg/day administered via subcutaneous osmotic pumps by continuous dosing measured on day 11 relative to control; assay type: functional

- clearance [1]: 39.9 mL/min/kg
- MRT [4]: 20.4 min
- Vd [5]: 0.809 L/kg
- concentration at 5 min [6]: 1060 nM
- MRT [7]: 26.4 min
- MAT (Mus musculus [8]): 0.1 h
- AUC(0-t) at 24 h [9]: 0.231 µM·h
- AUC(0-t) at 24 h [10]: 0.154 µM·h
- EC50 [11]: 200 pM
- Tmax [13]: 10.2 min
- bioavailability [15]: 66.6%
- IC50 [17]: 920 pM
- Cmax [21]: 283 nM
SMILES: CC(=O)N[C@@H](CO)C(=O)N1CCC[C@@H]1C(=O)N[C@@H](CCCNC(=N)N)C(=O)N[C@@H](Cc1ccncc1)C(=O)N[C@@H](CC1CCCCC1)C(=O)NC(C)(C)C(=O)N[C@@H](CC(N)=O)C(=O)N[C@@H](CCCCN)C(=O)NC(C)(C)C(=O)N[C@H](C(=O)N[C@@H](CCCNC(=N)N)C(=O)N[C@@H](CCC(N)=O)C(=O)N[C@@H](CCCNC(=N)N)C(=O)N[C@@H](CC1CCCCC1)C(N)=O)[C@@H](C)O
- inhibition (INH) (Mus musculus [2]): 80%
- Activity (Mus musculus [3]): Active
- inhibition (Mus musculus [12]): Active
- Activity (Mus musculus [14]): Active
- inhibition (INH) (Mus musculus [16]): 112%
- inhibition (Mus musculus [18]): Active
- Activity (Mus musculus [19]): Active
- inhibition (INH) (Mus musculus [20]): 38%
- Activity (Mus musculus [22]): 23%

- MAT (Mus musculus [8]): 0.14 h
- EC50 [11]: 200 pM
- bioavailability [15]: 18.6%
- IC50 [17]: 700 pM
SMILES: CC(=O)N[C@@H](CO)C(=O)N1C[C@@H](O)C[C@@H]1C(=O)N[C@@H](CCCNC(=N)N)C(=O)N[C@@H](Cc1cnc[nH]1)C(=O)N[C@@H](CC1CCCCC1)C(=O)N[C@@H](CC1CCCCC1)C(=O)N[C@@H](CC(N)=O)C(=O)N[C@@H](CC(C)C)C(=O)NC(C)(C)C(=O)N[C@H](C(=O)N[C@@H](CCCNC(=N)N)C(=O)N[C@@H](CCC(N)=O)C(=O)N[C@@H](CCCNC(=N)N)C(=O)N[C@@H](CC1CCCCC1)C(N)=O)[C@@H](C)O (Ac-S[dHyp]RH[Cha][Cha]NL[Aib]TRQR[Cha]-NH2)
- inhibition (INH) (Mus musculus [2]): 18%
